Assay results: patent US12583895B2, “Polypeptides for restoring endothelial function and methods of use thereof” (Vanderbilt University, priority 2019, dated 2026)
“Also recorded” adds a separate entry of the source. Non-standard residues stand in square brackets, D forms with d. No end group written: not given here. pS = N[C@@H](COP(=O)(O)O)C(=O)O

Key:
rat aorta [1] = assay: Endothelial-dependent relaxation of rat aorta after subfailure stretch injury, muscle bath; type: cell-based; conditions: stretch about 2 times resting length, peptide 500 μM, 1 hour, room temperature
Method: Freshly isolated rat aorta (RA) was subjected to subfailure stretch and incubated in PL in the absence (S) or presence of NiPp (500 μM) for 1 h at room temperature. […] The percent relaxation was determined as a change to the maximal PE-induced contraction. n=5 rats; #p<0.05, two-way ANOVA. […] Quantification of relative phosphorylation to total p38MAPK level is shown. N=10. *p<0.05, in one-way ANOVA with Tukey post-test. NiPp restores endothelial dysfunction and reduced p38 MAPK phosphorylation induced by stretch injury in RA.
Freshly isolated rat aorta was subjected to subfailure stretch (to haptic endpoint, approximately 2 times the resting length) and treated with NiPp, NiPp3, or scr3NiPp (500 μM) for 1 hour at room temperature. To determine the effect of injury on endothelial function, phenylephrine-precontracted tissues were treated with carbachol (CCH; 10^−8 to 10^−5M) and the percent relaxation was determined as a change to the maximal PE-induced contraction. Data are reported as mean responses±standard deviation. n=8. *p<0.05, two-way ANOVA with Tukey post-tests. There were significant differences between Stretch (S) vs. ctrl or NiPp-treated RA.
Measurement of endothelial-dependent relaxation. Rings of HSV or RA (1-2 mm) were suspended in a muscle bath containing a bicarbonate buffer (120 mM sodium chloride, 4.7 mM potassium chloride, 1.0 mM magnesium sulfate, 1.0 mM monosodium phosphate, 10 mM glucose, 1.5 mM calcium chloride, and 25 mM sodium bicarbonate, pH 7.4) equilibrated with 95% O2/5% CO2 at 37° C. for 1 h at a resting tension of 1 g, manually stretched to three times the resting tension, and maintained at resting tension for an additional 1 h.
This produced the maximal force tension relationship as previously described. […] Contractile responses were defined by stress, calculated using force generated by tissues as follows: stress (×10^5 N/m^2)=force (g)×0.0987/area, where area=wet weight (mg)/at maximal length (mm)]/1.055.
Relaxation was calculated as percent change in stress compared to the maximal PE-induced contraction (set as 100%). […]

rat aorta [2] = assay: Endothelial-dependent relaxation of rat aorta after cytokine (IL1β / cytomix) injury; type: cell-based; conditions: 2 hrs; for endothelial function (percent relaxation to carbachol) after IL1β injury: IL1β 50 ng/ml, peptide 100 μM; for endothelial function (percent relaxation to carbachol) after cytokine injury: IL1β alone 50 ng/ml or cytomix (IL1β, TNFa, IFNg), peptide 500 μM
Method: Freshly isolated rat aorta (RA) was cut into rings and suspended in the muscle bath. Tissues were then treated with either IL1β alone (50 ng/ml) or cytomix (IL1β 50 ng/ml, TNFa, 10 ng/ml, IFNg 50 ng/ml) in the absence or presence of NiPp (500 μM) for 2 hrs, contracted with PE, and then treated with escalating doses of carbachol (CCH; 10^−8 to 10^−5M). The percent relaxation was determined as a change to the maximal PE-induced contraction. n=5-7 rats. *p<0.05 in two-way ANOVA with Tukey post-test. NiPp restores cytokines-induced endothelial dysfunction in RA.
Freshly isolated rat aorta (RA) was cut into rings and suspended in the muscle bath. Tissues were then treated with the cytokine IL1β (50 ng/ml) in the absence or presence of NiPp, NiPp3, or scr3NiPp (100 μM) for 2 hrs, contracted with PE, and then treated with escalating doses of carbachol (CCH; 10^−8 to 10^−5 M). The percent relaxation was determined as a change to the maximal PE-induced contraction. n=5-7 rats. *p<0.05 in two-way ANOVA with Tukey post-tests. There were significant differences between IL1β-treated vs ctrl or NiPp-treated RA.
Freshly isolated rat aorta (RA) was cut into rings and suspended in the muscle bath. Tissues were then treated with either IL1β alone (50 ng/ml) or cytomix (IL1β 50 ng/ml, TNFa, 10 ng/ml, IFNg 50 ng/ml) in the absence or presence of NiPp (500 μM) for 2 hrs, contracted with PE, and then treated with escalating doses of carbachol (CCH; 10−8 to 10−5 M).
Freshly isolated rat aorta (RA) was cut into rings and suspended in the muscle bath. Tissues were then treated with the cytokine IL1β (50 ng/ml) in the absence or presence of NiPp, NiPp3, or scr3NiPp (100 μM) for 2 hrs, contracted with PE, and then treated with escalating doses of carbachol (CCH; 10^−8 to 10^−5 M). NiPp3 (SEQ ID NO:77) is a control polypeptide containing non-phosphorylated sequence of X2 of NiPp. scr3NiPp3 (SEQ ID NO:79) is a control polypeptide containing scrambled sequence of X2 of NiPp.

Row | Substance | endothelial function (percent relaxation to carbachol) after subfailure stretch injury (rat aorta [1]) | endothelial function (percent relaxation to carbachol) after IL1β injury (rat aorta [2]) | endothelial function (percent relaxation to carbachol) after cytokine injury (rat aorta [2]) | endothelial function (percent relaxation to carbachol) after IL1β injury (rat aorta [2]; listed as scr3NiPp3)
1 | YARAAARQARASPAARRA(pS)AILPG (YARAAARQARASPAARRA[pS]AILPG) [NiPp, Cell-permeant phosphopeptide mimetic of Niban: transduction domain … conjugated to the region surrounding serine 602 of Niban] | restores | restores | improved; also recorded: restores | –
2 | YARAAARQARAAGSPPLA(pS)AIARR (YARAAARQARAAGSPPLA[pS]AIARR) [scr3NiPp] | did not restore | did not restore | – | failed to restore
3 | YARAAARQARASPAARRASAILPG (not fully specified (residue 19)) [NiPp3] | did not restore | – | significant improvement | –
